Active and inactive are the calls of the source. The rule behind the calls is not given here. Residues, ends and D or L forms follow the SMILES beside them.
Experiments:
Format in all cases: functional, organism-based
Conditions in all cases: Aorta
Rattus norvegicus [1] = species on record: Rattus norvegicus; assay: Vasorelaxation effect against norepinephrine-induced contraction of rat thoracic aortic ring without endothelium at 100 uM
Rattus norvegicus [2] = species on record: Rattus norvegicus; assay: Vasorelaxation effect against norepinephrine-induced contraction of rat thoracic aortic ring with endothelium at 100 uM
Rattus norvegicus [3] = species on record: Rattus norvegicus; assay: Vasocontractile effect on norepinephrine-induced contraction of rat thoracic aortic ring without endothelium at 100 uM
Rattus norvegicus [4] = species on record: Rattus norvegicus; assay: Vasocontractile effect on norepinephrine-induced contraction of rat thoracic aortic ring with endothelium at 100 uM

SMILES | Activity (Rattus norvegicus [1]) | Activity (Rattus norvegicus [2]) | Activity (Rattus norvegicus [3]) | Activity (Rattus norvegicus [4])
CC(C)C[C@@H]1NC(=O)CNC(=O)[C@@H]2CCCN2C(=O)[C@H](Cc2ccccc2)NC(=O)[C@H](C)NC(=O)[C@H](Cc2ccccc2)NC(=O)[C@H](Cc2c[nH]cn2)NC1=O (cyclo(AFPGLHF)) | Active | Active | – | –
CC(C)C[C@@H]1NC(=O)CNC(=O)[C@@H]2CCCN2C(=O)[C@H](Cc2ccccc2)NC(=O)[C@H](C)NC(=O)[C@H](Cc2ccccc2)NC(=O)[C@H](CO)NC1=O (cyclo(AFPGLSF)) | Active | Active | – | –
CC(C)[C@@H]1NC(=O)CNC(=O)[C@H](C)NC(=O)[C@H](Cc2c[nH]c3ccccc23)NC(=O)[C@H](C)NC1=O (cyclo(AGVAW)) | – | Active | Active | Active
CC(C)[C@@H]1NC(=O)CNC(=O)[C@H](C)NC(=O)[C@H](Cc2ccc(O)cc2)NC(=O)[C@H](CCCCN)NC1=O (cyclo(AGVKY)) | Active | Active | – | –
CC(C)[C@@H]1NC(=O)[C@@H]2CCCN2C(=O)[C@H](C(C)C)NC(=O)CNC(=O)[C@H](C)NC(=O)[C@H](Cc2c[nH]c3ccccc23)NC1=O (cyclo(AGVPVW)) | Active | Active | – | –
C[C@@H]1NC(=O)[C@H](CO)NC(=O)[C@H](Cc2ccccc2)NC(=O)[C@@H]2CCCN2C(=O)[C@H](CCCCN)NC(=O)[C@H](CO)NC(=O)[C@H](CO)NC(=O)[C@H](Cc2ccc(O)cc2)NC(=O)[C@H](CO)NC1=O (cyclo(ASYSSKPFS)) | Active | Active | – | –
N=C(N)NCCC[C@@H]1NC(=O)[C@H](Cc2ccc(O)cc2)NC(=O)CNC(=O)[C@H](CO)NC(=O)[C@H](Cc2ccccc2)NC1=O (cyclo(FSGYR)) | Active | Active | – | –
